The values below come from patent US8338143B2, “Enhanced production of paclitaxel and taxanes by cell cultures of Taxus species” (Phyton Holdings, LLC, priority 1996, dated 2012).

Where two headings read alike, the source gives them in different places.

In series [1] the test system is Taxus chinensis cell line KS1A. In words: Enhancement of taxane biosynthesis by silver compounds. Format: cell-based. How it is done:
Analytical high performance liquid chromatography (HPLC) was performed on a high-carbon loaded diphenyl column (Supelco, 5 μM, 4.6 mm×25 cm) with an LDC Analytical binary gradient high pressure mixing system consisting of CM3500/CM3200 pumps, a CM4100 variable volume autosampler and an SM5000 photo diode array detector interfaced to a personal computer. Column temperature was regulated ay 35° C. with an Eldex CH150 column oven. Quantitative HPLC analysis of taxanes was accomplished using a binary gradient elution scheme as follows: […]
Seven-day old cells of Taxus chinensis suspension KS1A cultivated in Medium L (Table 2) were suction filtered aseptically using a sterile Buchner funnel fitted with a MIRACLOTH (Calbiochem) filter. Approximately 0.75 to 1 gram fresh weight cells were inoculated into 4 to 5 mL of culture medium of the given composition indicated in Table 10, to yield a fresh weight cell density in the range of 15% to 20% (w/v). The vessels were incubated at 25±1° C. at 120 RPM on a gyratory shaker (1″ throw) in the dark. Evaporation was corrected for by addition of sterile distilled water. Samples of whole broth (i.e., both extracellular and intracellular taxanes) were taken at periodic intervals, and were processed and analyzed by HPLC according to the methods outlined in Example 5.

Series [2] concerns Taxus chinensis cell culture SS6A-1224.
The subject of series [3] is Taxus chinensis cell culture SS122-13.
Series [4] relates to Taxus chinensis cell culture SS122-42.
For series [5] the test system is unchanged. Briefly: Enhancement of taxane biosynthesis by jasmonic acid and its methyl ester. Format: cell-based. To be noted: 200 μM JMA or 89 μM MJS; Medium N + 10 μM NAA, 14 days, whole broth. How it is done: Seven-day old cells of Taxus chinensis suspensions cultivated in Medium M (Table 2) were suction filtered aseptically using a sterile Buchner funnel fitted with a MIRACLOTH (Calbiochem) filter. Cells were inoculated into culture medium of the given composition indicated in Table 12, at a fresh weight cell density in the range of 15% to 20% (w/v). The cultures were incubated at 24±1° C. at 120 or 180 RPM (depending on the vessel size) on a gyratory shaker (1″ throw) in the dark. Evaporation was corrected for by adding sterile distilled water. Samples of whole broth (i.e., both extracellular and intracellular taxanes) were taken at periodic intervals, and were processed and analyzed by HPLC according to the methods outlined in Example 5.

Series [6] deals with Taxus spp. cell cultures. In words: Elicitation of Taxus cell cultures by biotic and abiotic elicitors. The following applies: comparison among elicitors tested.
For series [7], the system named is Taxus spp. cell cultures.
In series [8] the test system is Taxus chinensis cell culture SS122-13. Briefly: Enhancement of taxane biosynthesis by jasmonic acid and its methyl ester. To be noted: 89 μM MJS; Medium N + 10 μM NAA, 14 days, whole broth. The series is classed as cell-based. How it is done:
Seven-day old cells of Taxus chinensis suspensions cultivated in Medium M (Table 2) were suction filtered aseptically using a sterile Buchner funnel fitted with a […] (Calbiochem) filter. […] The cultures were incubated at 24±1° C. at 120 or 180 RPM (depending on the vessel size) on a gyratory shaker (1'' throw) in the dark. Evaporation was corrected for by adding sterile distilled water.

The next series deals with Taxus chinensis SS122-42. Briefly: Enhancement of taxane biosynthesis by MDNA. Format: cell-based. To be noted: 50 μM MDNA, 14 days, whole broth. How it is done:
Seven-day old cells of Taxus chinensis suspension culture SS122-42 cultivated in Medium M (Table 2) were suction filtered aseptically using a sterile Buchner funnel fitted with a […] (Calbiochem) filter. […] The vessels were incubated at 24±1° C. at 180 RPM on a gyratory shaker (1'' throw) in the dark. Treated cultures were sampled and analyzed using the methods described in Example 5 at various time points. Evaporation was corrected for by adding sterile distilled water at periodic intervals.

[9] abbreviates: culture medium I (Medium N + 10 μM NAA).
Where [10] appears, read: culture medium II (medium I + 50 μM silver thiosulfate).

For Silver thiosulfate, the “Baccatin III” value is 71 mg/L extracellular product in series [1], 172 mg/L in [2], 12 mg/L in series [3] and 4 mg/L in [4]. Further, the “Taxol (paclitaxel)” value in series [1] is recorded as 15 mg/L extracellular product; in series [2], 86 mg/L; in [3] it was 103 mg/L; in series [4], 146 mg/L. Besides, the “Total Taxanes” value in [1] is 86 mg/L extracellular product; in series [2] it was 384 mg/L; in series [3], 173 mg/L; in [4] it was 188 mg/L. In addition, the entries for the “Other Taxanes” value in series [2], in series [3] and in series [4] were 126 mg/L, 60 mg/L and 38 mg/L, respectively.
In the case of `CC/C=C\C[C@H]1C(=O)CC[C@@H]1CC(=O)O` [JMA, Jasmonic acid], in [5], the “Baccatin III” value turned out to be 4 mg/L, the “Other Taxanes” value was 87 mg/L, the “Taxol (paclitaxel)” value came to 120 mg/L and the “Total Taxanes” value is on record as 211 mg/L.
With `O=S(=O)([O-])[O-].[Ag+].[Ag+]` [Silver sulfate], in series [1], the “Baccatin III” value is 61 mg/L extracellular product, the “Taxol (paclitaxel)” value was 7 mg/L extracellular product and the “Total Taxanes” value is 68 mg/L extracellular product.
For the compound `COc1cc(/C=C/C(=O)O)ccc1O` [ferulic acid], in the series with Taxus spp. cell cultures [6], the “production increase by elicitation (taxane accumulation and secretion)” value is reported as “highest production increase”.
Take Chitosan: the “toxicity to cells / effect on cell viability” value in the series with Taxus spp. cell cultures [7] was “toxic and causes permanent cell damage”.
Regarding `O=C(O)c1ccccc1` [benzoic acid], the “production increase by elicitation (taxane accumulation and secretion)” value in the series on Taxus spp. cell cultures [6] is “highest production increase”.
`CC/C=C\CC1C(=O)CCC1CC(=O)OC` (centres unmarked) [MJS, methyl jasmonate]: in [5], the “Baccatin III” value is listed as 3 mg/L, the “Other Taxanes” value is listed as 109 mg/L, the “Taxol (paclitaxel)” value came to 121 mg/L and the “Total Taxanes” value was found to be 233 mg/L. For the same compound, in series [8], the “Baccatin III” value worked out at 9 mg/L, the “Other Taxanes” value stood at 63 mg/L, the “Taxol (paclitaxel)” value turned out to be 73 mg/L and the “Total Taxanes” value is on record as 124 mg/L.
In the case of `O=C(O)C=Cc1cc2c(cc1[N+](=O)[O-])OCO2` [MDNA, 3,4-methylenedioxy-6-nitrocinnamic acid], in the series with Taxus chinensis SS122-42 (setting [9]), the “Baccatin III” value turned out to be 5 mg/L, the “Other Taxanes” value is 45 mg/L, the “Taxol (paclitaxel)” value is on record as 163 mg/L and the “Total Taxanes” value worked out at 213 mg/L. Moreover, in the series with Taxus chinensis SS122-42 (setting [10]), the “Baccatin III” value is recorded as 34 mg/L, the “Other Taxanes” value came to 89 mg/L, the “Taxol (paclitaxel)” value was 311 mg/L and the “Total Taxanes” value was determined as 434 mg/L.
On to Silver oxide, for which, in series [1], the “Baccatin III” value was 43 mg/L extracellular product, the “Taxol (paclitaxel)” value is 18 mg/L extracellular product and the “Total Taxanes” value is reported as 61 mg/L extracellular product.
The like results for Toluenesulfonic acid silver salt were, in that order, 39 mg/L extracellular product, 6 mg/L extracellular product and 45 mg/L extracellular product.
The matching figures for `O=C([O-])c1ccccc1.[Ag+]` [Silver benzoate]: 40 mg/L extracellular product, 7 mg/L extracellular product and 47 mg/L extracellular product.
